Paper PMC11945486, “TAS1R2/TAS1R3 Single-Nucleotide Polymorphisms Affect Sweet Taste Receptor Activation by Sweeteners: The SWEET Project” (Nutrients, 2025)
Substitutions are numbered along the chain they refer to.

How the values were obtained:
mTAS1R2-WT/mTAS1R3-WT = target: T1, mTAS1R2-WT/mTAS1R3-WT (Mus musculus, UniProt Q925D8+Q925I4); assay: Calcium mobilisation assay, HEK293T-Gα16gust44 cells, mouse sweet taste receptor WT; assay type: cell-based; conditions: mTAS1R2-WT + mTAS1R3-WT; "-": no activation
T1 construct: expressed in transfected cells; host or cells: HEK293T-Gα16gust44
T1 sequence (Q925I4 20-843): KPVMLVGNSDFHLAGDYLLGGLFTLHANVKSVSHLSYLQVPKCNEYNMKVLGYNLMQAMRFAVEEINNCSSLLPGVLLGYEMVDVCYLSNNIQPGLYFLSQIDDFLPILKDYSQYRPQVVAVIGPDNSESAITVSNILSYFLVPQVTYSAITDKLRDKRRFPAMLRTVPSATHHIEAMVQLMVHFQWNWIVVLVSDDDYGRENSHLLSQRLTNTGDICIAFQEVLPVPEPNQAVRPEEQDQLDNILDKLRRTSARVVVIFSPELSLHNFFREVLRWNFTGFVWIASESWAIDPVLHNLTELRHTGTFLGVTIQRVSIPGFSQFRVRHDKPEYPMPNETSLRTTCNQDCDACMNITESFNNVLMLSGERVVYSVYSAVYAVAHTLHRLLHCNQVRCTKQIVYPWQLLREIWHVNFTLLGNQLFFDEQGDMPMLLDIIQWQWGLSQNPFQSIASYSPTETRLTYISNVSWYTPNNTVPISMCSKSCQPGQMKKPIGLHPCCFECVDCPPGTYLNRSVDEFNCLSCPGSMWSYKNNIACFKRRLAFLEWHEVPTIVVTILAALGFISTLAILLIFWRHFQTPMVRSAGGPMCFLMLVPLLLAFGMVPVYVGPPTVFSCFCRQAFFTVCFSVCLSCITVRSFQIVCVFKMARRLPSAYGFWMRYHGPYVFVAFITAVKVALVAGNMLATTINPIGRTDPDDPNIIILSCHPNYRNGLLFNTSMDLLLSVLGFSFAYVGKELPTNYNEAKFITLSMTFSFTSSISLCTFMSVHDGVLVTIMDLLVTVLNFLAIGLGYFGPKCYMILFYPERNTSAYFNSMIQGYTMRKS
T1 sequence (Q925D8 21-858): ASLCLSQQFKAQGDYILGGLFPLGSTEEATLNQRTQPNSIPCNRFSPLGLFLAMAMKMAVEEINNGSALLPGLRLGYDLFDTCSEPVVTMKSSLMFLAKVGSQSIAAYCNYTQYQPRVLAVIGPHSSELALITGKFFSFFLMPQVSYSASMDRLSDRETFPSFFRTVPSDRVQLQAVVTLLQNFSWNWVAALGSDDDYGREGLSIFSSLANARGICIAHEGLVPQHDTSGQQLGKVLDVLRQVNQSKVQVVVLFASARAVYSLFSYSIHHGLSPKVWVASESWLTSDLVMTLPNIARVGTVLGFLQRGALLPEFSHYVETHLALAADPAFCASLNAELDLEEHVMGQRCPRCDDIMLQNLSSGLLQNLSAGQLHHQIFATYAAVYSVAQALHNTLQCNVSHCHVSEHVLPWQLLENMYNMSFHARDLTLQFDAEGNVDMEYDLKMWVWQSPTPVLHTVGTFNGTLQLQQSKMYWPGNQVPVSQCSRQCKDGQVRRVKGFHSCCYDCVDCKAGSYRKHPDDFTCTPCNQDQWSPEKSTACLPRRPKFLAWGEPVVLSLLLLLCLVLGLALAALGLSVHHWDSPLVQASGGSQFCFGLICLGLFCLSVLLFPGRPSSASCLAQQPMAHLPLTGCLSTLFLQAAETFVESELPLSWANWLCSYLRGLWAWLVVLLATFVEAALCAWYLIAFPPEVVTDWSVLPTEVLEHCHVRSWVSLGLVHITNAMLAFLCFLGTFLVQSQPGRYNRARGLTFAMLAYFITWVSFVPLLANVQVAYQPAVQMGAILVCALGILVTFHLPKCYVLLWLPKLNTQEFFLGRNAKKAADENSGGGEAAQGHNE
Description: (§1) The HEK293T cells were kindly provided by Jay P. Slack (Givaudan Flavors Corporation; Cincinnati, OH, USA). HEK293T cells stably transfected with Gα16gust44 [43, 67] were seeded in poly-D-lysine-coated clear-bottom black 96-well plates (0.35 × 10^5 cells/well) in high-glucose DMEM supplemented with 2 mM GlutaMAX, 10% dialysed foetal bovine serum with penicillin/streptomycin and G418 (400 μg/mL) at 37 °C and 6.3% CO2 in a humidified atmosphere as previously reported. […] As a negative control, HEK293T cells were mock-transfected with the empty expression vector. After a further 24 h of incubation, the HEK293T cells were washed with C1 buffer (130 mM NaCl, 5 mM KCl, 10 mM HEPES pH 7.4 and 2 mM CaCl2). The 96-well plates containing the cells were then stimulated with sweet-tasting compounds. […] Different concentration ranges were tested depending on the sweet compound injected. The Ca^2+ changes were expressed as fractional changes in fluorescent light intensity: ΔF/F = (F − F0)/F0, where F was the fluorescent light intensity at each point, and F0 was the value of emitted fluorescent light prior to stimulus application. To calculate dose–response relationships, the changes in fluorescence upon stimulus application were averaged, mock-subtracted and baseline-corrected. The dose–response data obtained were adjusted using a 4-parameter logistic equation. The half-maximal effective concentrations (EC50 values) and maximal signal amplitudes were calculated using SigmaPlot software (version 15.0) (Systat Software; San Jose, CA, USA).
(§2) HEK293T-Gα16gust44 cells were transiently cotransfected with pcDNA6-MAX-mTAS1R2-FLAG, pcDNA4-MAX-mTAS1R3-WT-FLAG or pcDNA4-MAX-mTAS1R3-I60T-FLAG, and pCMV-GCaMP5G as previously described in detail. After 24 h, the cells were washed with C1 buffer and stimulated with a logarithmically increasing range of sweetener concentrations. Calcium responses during automated application were monitored using a FlexStation®3 Multi-Mode microplate reader. The dose–response curves, EC50 values and maximal signal amplitudes were calculated as previously described.
(§3) For in vitro calcium mobilisation assay performed on hTAS1R2-SNPs, hTAS1R3-SNPs and mTAS1R3-I60T, 6 to 7 concentrations were tested for each sweet compound, plus buffer alone. All concentration–receptor combinations were measured in duplicate, and each experiment was repeated at least 4 times (8 wells/concentration). Results were expressed for each concentration as ΔF/F mean ± SEM and represented as dose–response curves.

mTAS1R2-WT/mTAS1R3-I60T = target: T2, mTAS1R2-WT/mTAS1R3-I60T (Mus musculus, UniProt Q925D8+Q925I4, I60T); assay: Calcium mobilisation assay, HEK293T-Gα16gust44 cells, mouse TAS1R3-I60T variant; assay type: cell-based; conditions: mTAS1R2-WT + mTAS1R3-I60T; "-": no activation
T2 construct: expressed in transfected cells; host or cells: HEK293T-Gα16gust44
T2 sequence (Q925I4 20-843): T1 sequence (Q925I4 20-843)
T2 sequence (Q925D8 21-858 I60T): T1 sequence (Q925D8 21-858) with I40T
Description: as §1, §2, §3

- EC50 (mTAS1R2-WT/mTAS1R3-WT): 1.52 ± 0.017 mM
- EC50 (mTAS1R2-WT/mTAS1R3-I60T): 2.54 ± 0.061 mM
Structure (SMILES): O=C1NS(=O)(=O)c2ccccc21 [Saccharin, saccharin]
